Each structure is given as a SMILES string. Structures can show the parent of a compound that is named as a salt.

Assay [1] has as its target T1, human CDK4/cyclin D3 (Homo sapiens, UniProt P11802).
T1 construct: made in house; host or cells: insect cells co-infected with baculovirus vectors
Nature of the assay: Inhibition of CDK4/cyclin D retinoblastoma kinase activity (Ki; % inhibition). Type of assay: biochemical. The method, boiled down:
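Radiometric filter-binding read-out: Rb residues 386-928 phosphorylated by 5 nM CDK4/cyclin D3(1-264) from baculovirus-infected insect cells, 25 μM ATP, HEPES pH 7.4, 30 °C. Run 20 min, or 60 min for tight-binding inhibitors. Screening at 30 nM theoretical compound; apparent Ki by competitive-inhibition fitting.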

The target of assay [2] is T2, CDK2/cyclin A (Homo sapiens, UniProt P24941).
T2 construct: made in house; host or cells: CDK2: insect cells (baculovirus); cyclin A: E. coli
Description: Inhibition of CDK2/cyclin A retinoblastoma kinase activity (Ki; % inhibition). Type of assay: biochemical. The method, boiled down: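 Apparent Ki values came from fitting concentration-dependent activity data to competitive (or competitive tight-binding) models, and % inhibition from single 30 nM screens of library compounds. Activity was measured as ³²P/³³P incorporation from 25 μM ATP into an Rb substrate by 10 or 19 nM CDK2/delta cyclin A at 30 °C over 60–75 min, pH 7.4.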

In assay [3] the test system is HCT-116 cell line. Description: Inhibition of cell growth, MTT tetrazolium salt assay. The class given is cell-based. The method, boiled down: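 Growth inhibition was read as MTT-formazan absorbance at 540 nm, after 4 h with 0.2 mg/mL MTT. Before that, HCT-116 cells had been exposed 3–5 days at 37 °C to compounds in 0.5% (v/v) DMSO, added 4 h after plating. 50% and 90% inhibitory concentrations were taken from semi-log concentration–inhibition plots versus vehicle controls.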

[4] abbreviates: HCT-116 cells, 0.25 μM compound.

T1 sequence (P11802 whole entry): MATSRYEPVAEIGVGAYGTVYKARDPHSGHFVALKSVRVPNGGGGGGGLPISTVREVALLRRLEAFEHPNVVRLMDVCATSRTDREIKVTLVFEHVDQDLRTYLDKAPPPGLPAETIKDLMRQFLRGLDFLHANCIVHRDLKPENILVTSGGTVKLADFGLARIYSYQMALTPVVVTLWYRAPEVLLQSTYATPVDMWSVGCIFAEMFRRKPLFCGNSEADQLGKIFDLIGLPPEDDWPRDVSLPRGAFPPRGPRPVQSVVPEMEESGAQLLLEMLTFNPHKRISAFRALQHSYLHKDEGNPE
T1 sequence (P30281 1-264 partner limits assumed): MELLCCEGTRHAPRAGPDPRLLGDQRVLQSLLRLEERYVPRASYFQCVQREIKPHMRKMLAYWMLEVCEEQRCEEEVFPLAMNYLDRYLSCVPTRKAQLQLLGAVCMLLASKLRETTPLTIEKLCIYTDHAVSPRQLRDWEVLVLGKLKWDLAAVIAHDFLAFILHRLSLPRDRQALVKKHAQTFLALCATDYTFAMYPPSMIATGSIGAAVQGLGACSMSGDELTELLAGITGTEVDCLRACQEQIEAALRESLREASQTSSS

For the molecule `COCCNC(=O)c1ccc(Nc2nc(N)c(C(=O)c3c(F)cccc3F)s2)cc1` [Example G164], the “CDK4 % Inhibition at 0.03 μM” value in assay [1] (at 0.03 μM) is given as 19%. Further, the “CDK2 % Inhibition at 0.03 μM” value in assay [2] (at 0.03 μM) is recorded as 13%. Moreover, the “HCT-116 % Inhibition at 0.1 μM” value in assay [3] (HCT-116, at 0.1 μM) came out at 0%. Further, in assay [3] (HCT-116, at 0.25 μM), the “HCT-116 % Inhibition at 0.25 μM” value stood at 59%.
As for `CSCCC(O)NC(=O)c1ccc(Nc2nc(N)c(C(=O)c3c(F)cccc3F)s2)cc1` (stereo not shown) [Example G108], in assay [1] (at 0.03 μM), the “CDK4 % Inhibition at 0.03 μM” value turned out to be 12%. In addition, the “CDK2 % Inhibition at 0.03 μM” value in assay [2] (at 0.03 μM) is given as −5%. Also, the “HCT-116 % Inhibition at 0.1 μM” value in assay [3] (HCT-116, at 0.1 μM) is 0%. In assay [3] (HCT-116, at 0.25 μM), the “HCT-116 % Inhibition at 0.25 μM” value stood at 60%.
As to `CN1CCN(C(=O)c2ccc(Nc3nc(N)c(C(=O)c4c(F)cccc4F)s3)cc2)CC1` [Example G2], in assay [1] (at 0.03 μM), the “CDK4 % Inhibition at 0.03 μM” value is reported as 8%. In addition, the “CDK2 % Inhibition at 0.03 μM” value in assay [2] (at 0.03 μM) is −9%. Moreover, the “HCT-116 % Inhibition at 0.25 μM” value in assay [3] (HCT-116, at 0.25 μM) came to 51%.
On to `CCCN(CCC)C(=O)c1ccc(Nc2nc(N)c(C(=O)c3c(F)cccc3F)s2)cc1` [Example G248], for which the “CDK4 % Inhibition at 0.03 μM” value in assay [1] (0.03 μM compound) came out at 17%. In addition, the “CDK2 % Inhibition at 0.03 μM” value in assay [2] (0.03 μM compound) came out at 8%. For the same molecule, the “HCT-116 % Inhibition at 0.1 μM” value in assay [3] (HCT-116 cells, 0.1 μM compound) is listed as 13%. For the same molecule, the “HCT-116 % Inhibition at 0.25 μM” value in assay [3] (setting [4]) came out at 55%.
Take `Nc1nc(Nc2ccc(C(=O)NCCCCCO)cc2)sc1C(=O)c1c(F)cccc1F` [Example G274]: the “CDK4 % Inhibition at 0.03 μM” value in assay [1] (0.03 μM compound) stood at 5%. For the same molecule, the “CDK2 % Inhibition at 0.03 μM” value in assay [2] (0.03 μM compound) is given as −4%. For the same molecule, in assay [3] (HCT-116 cells, 0.1 μM compound), the “HCT-116 % Inhibition at 0.1 μM” value came to 15%. In addition, in assay [3] (setting [4]), the “HCT-116 % Inhibition at 0.25 μM” value was found to be 47%.
For the molecule `CC(C)C[C@@H](CO)NC(=O)c1ccc(Nc2nc(N)c(C(=O)c3c(F)cccc3F)s2)cc1` [Example G333], the “CDK4 % Inhibition at 0.03 μM” value in assay [1] (0.03 μM compound) is on record as −5%. The “CDK2 % Inhibition at 0.03 μM” value in assay [2] (0.03 μM compound) was −16%. Further, in assay [3] (HCT-116 cells, 0.1 μM compound), the “HCT-116 % Inhibition at 0.1 μM” value was 4%. Moreover, the “HCT-116 % Inhibition at 0.25 μM” value in assay [3] (setting [4]) is listed as 51%.
For `Nc1nc(Nc2ccc(C(=O)NCCOCCO)cc2)sc1C(=O)c1c(F)cccc1F` [Example G264], in assay [1] (0.03 μM compound), the “CDK4 % Inhibition at 0.03 μM” value amounted to 13%. The “CDK2 % Inhibition at 0.03 μM” value in assay [2] (0.03 μM compound) is −9%. The “HCT-116 % Inhibition at 0.1 μM” value in assay [3] (HCT-116 cells, 0.1 μM compound) is on record as 22%. The “HCT-116 % Inhibition at 0.25 μM” value in assay [3] (setting [4]) is given as 53%.
The matching figures for `Nc1nc(Nc2ccc(C(=O)NC3CCC(O)CC3)cc2)sc1C(=O)c1c(F)cccc1F` (stereo not shown) [Example G346]: 11%, 11%, 15% and 52%.
With `Cc1ccsc1C(=O)c1sc(Nc2ccc(C(=O)N[C@H](C)CN(C)C)cc2)nc1N` [Example A62, 4-{4-Amino-5-[1-(3-methyl-thiophen-2-yl)-methanoyl]-thiazol-2-ylamino}-N-(2-dimethylamino-1R-methyl-ethyl)-benzamide Trifluoroacetic Acid Salt], the Ki came to 120 nM in assay [1] (apparent Ki, CDK4/cyclin D3, Rb substrate) and 2.8 nM in assay [2] (apparent Ki, CDK2/cyclin A, Rb substrate). In addition, the IC50 in assay [3] (Homo sapiens, HCT-116, 120 h, MTT, three to five days) is 44 nM.
As to `Nc1nc(Nc2ccc(C(=O)N3CCN(C(=O)c4ccco4)CC3)cc2)sc1C(=O)c1c(F)cccc1F` [Example G32], the “CDK4 % Inhibition at 0.03 μM” value in assay [1] (at 0.03 μM) worked out at 27%. For the same molecule, the “CDK2 % Inhibition at 0.03 μM” value in assay [2] (at 0.03 μM) is 8%. Besides, the “HCT-116 % Inhibition at 0.25 μM” value in assay [3] (HCT-116, at 0.25 μM) is 55%.
Turning to `CN(CCC(O)c1ccccc1)C(=O)c1ccc(Nc2nc(N)c(C(=O)c3c(F)cccc3F)s2)cc1` (stereo not shown) [Example G370], the “CDK4 % Inhibition at 0.03 μM” value in assay [1] (0.03 μM compound) is 17%. Also, the “CDK2 % Inhibition at 0.03 μM” value in assay [2] (0.03 μM compound) was 22%. For the same molecule, the “HCT-116 % Inhibition at 0.1 μM” value in assay [3] (HCT-116 cells, 0.1 μM compound) is recorded as 19%. Moreover, the “HCT-116 % Inhibition at 0.25 μM” value in assay [3] (setting [4]) is listed as 52%.
With `COc1cc(CNC(=O)c2ccc(Nc3nc(N)c(C(=O)c4c(F)cccc4F)s3)cc2)cc(OC)c1OC` [Example G234], the “CDK4 % Inhibition at 0.03 μM” value in assay [1] (0.03 μM compound) is reported as 39%. Also, the “CDK2 % Inhibition at 0.03 μM” value in assay [2] (0.03 μM compound) stood at 35%. Further, in assay [3] (HCT-116 cells, 0.1 μM compound), the “HCT-116 % Inhibition at 0.1 μM” value was found to be 20%. Moreover, in assay [3] (setting [4]), the “HCT-116 % Inhibition at 0.25 μM” value is on record as 63%.
For the molecule `Nc1nc(Nc2ccc(C(=O)Nc3ccc(Cl)cc3CO)cc2)sc1C(=O)c1c(F)cccc1F` [Example G341], in assay [1] (0.03 μM compound), the “CDK4 % Inhibition at 0.03 μM” value is listed as 10%. The “CDK2 % Inhibition at 0.03 μM” value in assay [2] (0.03 μM compound) is −11%. Further, in assay [3] (HCT-116 cells, 0.1 μM compound), the “HCT-116 % Inhibition at 0.1 μM” value is reported as 23%. Besides, the “HCT-116 % Inhibition at 0.25 μM” value in assay [3] (setting [4]) came out at 93%.
Consider `COc1ccccc1NC(=O)c1ccc(Nc2nc(N)c(C(=O)c3c(F)cccc3F)s2)cc1` [Example G23], for which the “CDK4 % Inhibition at 0.03 μM” value in assay [1] (at 0.03 μM) came to 7%. The “CDK2 % Inhibition at 0.03 μM” value in assay [2] (at 0.03 μM) worked out at 8%. For the same molecule, the “HCT-116 % Inhibition at 0.25 μM” value in assay [3] (HCT-116, at 0.25 μM) is recorded as 63%.

(Values after patent US6720346B2, “Thiazole benzamide derivatives and pharmaceutical compositions for inhibiting cell proliferation” (Agouron Pharmaceuticals, Inc., priority 2001, dated 2004).)
